# Measurements: patent EP4745138A1, “THIO-GLUTARIMIDO ISOINDOLINONE DERIVATIVE, BIFUNCTIONAL PROTEIN DEGRADER CONTAINING SAME, AND USES THEREOF” (Gluetacs Therapeutics (Shanghai) Co., Ltd., priority 2023, dated 2025)
# Read-outs that look alike come from different tables or passages of the source.
# Key:
# MM.1S = assay: Tumor cell proliferation inhibition (CellTiter-Meiluncell Luminescent Cell Viability Assay); assay type: cell-based; conditions: Homo sapiens, MM1.S, MM.1S, 96 hours, Table I-10, BCR-ABL inhibitors
# Method in brief: (§1)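 Following overnight seeding, tumor cells received serial compound dilutions to final levels that included 10 nM and 500 nM. Viability was assessed by luminescence at the end of the specified exposure time. Cultures were kept at 37°C with 5% CO2.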
# MV-4-11 = assay: as above; assay type: cell-based; conditions: Homo sapiens, 96 hours; for inhibition at 0.01 µM: MV4-11, 10 nM, read-out: Inhibition Rate at 10 nM (%); for inhibition at 0.5 µM: MV4-11, 500 nM, read-out: Inhibition Rate at 500 nM (%)
# Method in brief: as §1
# RPMI-8226 = assay: as above; assay type: cell-based; conditions: Homo sapiens, 96 hours, Table I-10, BCR-ABL inhibitors
# Method in brief: as §1
# SW620 = assay: as above; assay type: cell-based; conditions: Homo sapiens, 96 hours, Table I-10, BCR-ABL inhibitors
# Method in brief: as §1
# BCR-ABL = target: T1, BCR-ABL (Homo sapiens, UniProt P00519+P11274+Q96SW2, E27K); assay: Western blot, target protein degradation in K562 Cell; assay type: cell-based; conditions: substrate protein remaining %, treated at 500 nM and 50 nM, 24 hours
# T1 construct: endogenous in cells; host or cells: K562
# T1 sequence (P11274+P00519 fused, stated change not applied): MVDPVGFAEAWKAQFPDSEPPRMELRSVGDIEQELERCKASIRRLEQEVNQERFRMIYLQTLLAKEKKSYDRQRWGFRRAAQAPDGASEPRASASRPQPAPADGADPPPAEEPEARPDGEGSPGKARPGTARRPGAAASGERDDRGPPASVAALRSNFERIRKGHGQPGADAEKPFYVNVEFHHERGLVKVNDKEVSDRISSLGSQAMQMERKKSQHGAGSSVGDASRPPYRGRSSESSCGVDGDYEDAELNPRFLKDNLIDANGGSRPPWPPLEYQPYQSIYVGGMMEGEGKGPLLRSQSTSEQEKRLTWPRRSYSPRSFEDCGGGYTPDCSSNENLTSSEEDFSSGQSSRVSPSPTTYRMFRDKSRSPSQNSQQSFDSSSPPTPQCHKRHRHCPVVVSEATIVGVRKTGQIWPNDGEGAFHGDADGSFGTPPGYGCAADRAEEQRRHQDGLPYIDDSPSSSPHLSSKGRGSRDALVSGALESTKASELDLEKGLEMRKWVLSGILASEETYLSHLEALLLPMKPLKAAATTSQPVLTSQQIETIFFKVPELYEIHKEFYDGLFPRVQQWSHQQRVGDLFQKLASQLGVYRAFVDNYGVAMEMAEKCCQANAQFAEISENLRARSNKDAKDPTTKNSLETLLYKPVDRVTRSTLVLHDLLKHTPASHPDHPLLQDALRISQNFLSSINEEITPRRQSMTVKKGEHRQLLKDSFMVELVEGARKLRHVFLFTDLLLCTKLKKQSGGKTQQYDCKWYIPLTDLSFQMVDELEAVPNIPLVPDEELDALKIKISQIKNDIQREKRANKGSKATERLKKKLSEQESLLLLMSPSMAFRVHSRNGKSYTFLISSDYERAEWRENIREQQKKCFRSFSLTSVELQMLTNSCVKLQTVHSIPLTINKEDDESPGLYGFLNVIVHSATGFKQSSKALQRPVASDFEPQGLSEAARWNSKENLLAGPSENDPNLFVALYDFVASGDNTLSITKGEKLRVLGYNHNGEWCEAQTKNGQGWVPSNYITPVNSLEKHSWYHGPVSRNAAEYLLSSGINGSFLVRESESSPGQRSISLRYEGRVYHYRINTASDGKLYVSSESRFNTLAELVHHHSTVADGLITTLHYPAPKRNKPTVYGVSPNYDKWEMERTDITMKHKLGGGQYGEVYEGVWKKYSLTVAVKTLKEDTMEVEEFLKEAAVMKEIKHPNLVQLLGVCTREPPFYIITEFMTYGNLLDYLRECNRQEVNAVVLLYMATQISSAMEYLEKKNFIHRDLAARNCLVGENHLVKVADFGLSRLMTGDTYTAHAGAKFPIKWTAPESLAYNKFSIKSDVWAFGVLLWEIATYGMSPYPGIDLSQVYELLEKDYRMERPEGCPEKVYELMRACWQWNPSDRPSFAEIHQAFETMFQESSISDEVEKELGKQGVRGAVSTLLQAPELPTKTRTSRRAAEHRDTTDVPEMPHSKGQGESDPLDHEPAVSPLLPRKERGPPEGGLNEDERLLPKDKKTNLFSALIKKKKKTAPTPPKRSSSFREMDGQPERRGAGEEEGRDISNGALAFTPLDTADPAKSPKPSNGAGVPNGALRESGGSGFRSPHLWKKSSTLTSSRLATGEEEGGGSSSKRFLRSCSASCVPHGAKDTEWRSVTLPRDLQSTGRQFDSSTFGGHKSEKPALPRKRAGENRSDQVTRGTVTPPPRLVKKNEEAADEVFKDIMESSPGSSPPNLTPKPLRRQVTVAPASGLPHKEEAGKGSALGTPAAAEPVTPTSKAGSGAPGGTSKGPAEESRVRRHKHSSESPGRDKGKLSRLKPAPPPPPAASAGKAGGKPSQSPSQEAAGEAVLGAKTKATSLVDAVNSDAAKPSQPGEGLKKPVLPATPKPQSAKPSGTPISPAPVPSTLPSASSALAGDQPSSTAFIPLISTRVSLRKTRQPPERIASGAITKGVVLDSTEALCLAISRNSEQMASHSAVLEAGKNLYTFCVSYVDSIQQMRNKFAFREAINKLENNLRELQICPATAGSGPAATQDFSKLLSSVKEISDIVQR
# T1 sequence (Q96SW2 whole entry, stated change not applied): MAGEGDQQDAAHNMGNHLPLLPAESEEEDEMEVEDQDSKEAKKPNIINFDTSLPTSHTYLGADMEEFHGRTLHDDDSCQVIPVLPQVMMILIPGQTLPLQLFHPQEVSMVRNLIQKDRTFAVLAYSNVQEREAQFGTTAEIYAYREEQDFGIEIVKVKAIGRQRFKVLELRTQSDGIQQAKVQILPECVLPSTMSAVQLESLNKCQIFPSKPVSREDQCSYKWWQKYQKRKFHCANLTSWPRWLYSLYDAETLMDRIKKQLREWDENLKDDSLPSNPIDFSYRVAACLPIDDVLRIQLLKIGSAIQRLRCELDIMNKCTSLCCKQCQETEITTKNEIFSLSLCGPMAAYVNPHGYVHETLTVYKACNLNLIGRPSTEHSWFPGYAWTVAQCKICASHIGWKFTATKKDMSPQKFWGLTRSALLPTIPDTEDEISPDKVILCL
# T1 sequence (Q16531 whole entry partner): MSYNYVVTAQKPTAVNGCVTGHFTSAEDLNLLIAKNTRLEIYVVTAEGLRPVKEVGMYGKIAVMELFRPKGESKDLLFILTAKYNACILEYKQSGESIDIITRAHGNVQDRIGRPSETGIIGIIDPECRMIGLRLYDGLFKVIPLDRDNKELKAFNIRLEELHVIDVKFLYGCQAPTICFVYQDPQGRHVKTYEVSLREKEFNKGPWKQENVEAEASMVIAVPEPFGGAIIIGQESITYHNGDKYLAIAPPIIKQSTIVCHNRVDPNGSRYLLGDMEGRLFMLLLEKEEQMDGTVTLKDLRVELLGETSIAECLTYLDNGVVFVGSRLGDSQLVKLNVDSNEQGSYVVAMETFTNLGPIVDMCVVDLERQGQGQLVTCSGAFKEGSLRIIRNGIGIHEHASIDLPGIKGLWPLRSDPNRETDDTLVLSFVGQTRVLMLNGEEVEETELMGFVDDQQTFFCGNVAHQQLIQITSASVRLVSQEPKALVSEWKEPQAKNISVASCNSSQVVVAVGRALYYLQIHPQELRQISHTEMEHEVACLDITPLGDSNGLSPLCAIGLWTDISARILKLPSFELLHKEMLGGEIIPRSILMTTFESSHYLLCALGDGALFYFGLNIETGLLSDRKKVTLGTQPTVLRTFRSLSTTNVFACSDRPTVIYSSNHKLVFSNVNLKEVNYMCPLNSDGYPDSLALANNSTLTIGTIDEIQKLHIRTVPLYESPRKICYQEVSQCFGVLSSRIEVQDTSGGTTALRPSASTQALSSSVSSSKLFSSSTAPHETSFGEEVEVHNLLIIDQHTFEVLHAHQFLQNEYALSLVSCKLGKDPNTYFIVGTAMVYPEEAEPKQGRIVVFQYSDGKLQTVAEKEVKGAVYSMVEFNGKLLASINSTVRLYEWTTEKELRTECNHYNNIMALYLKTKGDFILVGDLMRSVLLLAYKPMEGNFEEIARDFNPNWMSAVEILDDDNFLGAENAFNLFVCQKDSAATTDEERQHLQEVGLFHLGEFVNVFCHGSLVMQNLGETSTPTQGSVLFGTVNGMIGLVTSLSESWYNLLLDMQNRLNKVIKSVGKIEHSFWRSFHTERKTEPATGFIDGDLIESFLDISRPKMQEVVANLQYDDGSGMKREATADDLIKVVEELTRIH
# Protocol: (§2) Conventional Western blot assay was performed to evaluate the effects of the compounds of the present disclosure on the expression of target proteins in cells.
# (§3) (1) Cell Seeding and Protein Harvesting: The selected cells were processed according to the cell seeding procedure and protein harvesting procedure in Table II-2. Table II-2 Cell Seeding and Protein Harvesting Procedures
# (§4) (2) To the collected supernatant, 5X SDS sample loading buffer was added, followed by denaturation at 95°C for 5 minutes. The denatured samples were then separated by SDS-PAGE electrophoresis on a polyacrylamide gel. Proteins were transferred to a nitrocellulose membrane (0.45 µm NC membrane), blocked with blocking buffer at room temperature for 1 hour, and subjected to antibody incubation and development procedures according to the antibody manufacturer's instructions (Cell Signaling Technology).
# (§5) Half-Maximal Degradation Concentration value (the drug concentration required for degrading proteins by 50%, abbreviated as DC50) reads method: comparing the grayscale values of Western blot bands from drug-treated samples with those from blank DMSO-treated controls, and identifying the drug concentration range at which the grayscale value is half that of the DMSO-treated control bands.
# (§6) DC50 values can be calculated using ImageJ software to measure grayscale values of Western blot bands from drug-treated samples. The concentration-response curve is fitted to estimate the drug concentration corresponding to half the grayscale value.
# (§7) Target protein remaining (%) refers to the percentage of target protein remaining in cells after treatment with protein degrader compounds.
# (§8) Calculation method for target protein remaining (%): Use ImageJ software to measure grayscale values of Western blot bands from drug (protein degrader)-treated samples. The grayscale value of drug-treated bands is divided by that of internal control protein bands, and the resulting quotient is normalized to obtain the relative percentage of remaining target protein after protein degrader treatment. Target protein degradation rate(%) = 1−target protein remaining(%). [formula]
# CDK4 = target: T2, CDK4 (Homo sapiens, UniProt P11802); assay: Western blot, target protein degradation in MDA-MB-231 Cell; assay type: cell-based; conditions: substrate protein remaining %, treated at 500 nM and 50 nM, 24 hours
# T2 construct: endogenous in cells; host or cells: MDA-MB-231
# T2 sequence (P11802 whole entry): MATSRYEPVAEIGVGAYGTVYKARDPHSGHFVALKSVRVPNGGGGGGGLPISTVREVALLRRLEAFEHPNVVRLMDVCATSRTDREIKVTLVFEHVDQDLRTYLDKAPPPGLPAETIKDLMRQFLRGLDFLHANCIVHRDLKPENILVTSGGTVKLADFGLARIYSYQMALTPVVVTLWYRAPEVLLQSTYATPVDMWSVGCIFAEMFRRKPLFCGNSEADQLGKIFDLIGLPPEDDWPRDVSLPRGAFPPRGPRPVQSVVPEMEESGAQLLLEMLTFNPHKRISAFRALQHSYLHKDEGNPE
# Protocol: as §2, §3, §4, §5, §6, §7, §8
# CDK6 = target: T3, CDK6 (Homo sapiens, UniProt Q00534); assay: as above; assay type: cell-based; conditions: substrate protein remaining %, treated at 500 nM and 50 nM, 24 hours
# T3 construct: endogenous in cells; host or cells: MDA-MB-231
# T3 sequence (Q00534 whole entry): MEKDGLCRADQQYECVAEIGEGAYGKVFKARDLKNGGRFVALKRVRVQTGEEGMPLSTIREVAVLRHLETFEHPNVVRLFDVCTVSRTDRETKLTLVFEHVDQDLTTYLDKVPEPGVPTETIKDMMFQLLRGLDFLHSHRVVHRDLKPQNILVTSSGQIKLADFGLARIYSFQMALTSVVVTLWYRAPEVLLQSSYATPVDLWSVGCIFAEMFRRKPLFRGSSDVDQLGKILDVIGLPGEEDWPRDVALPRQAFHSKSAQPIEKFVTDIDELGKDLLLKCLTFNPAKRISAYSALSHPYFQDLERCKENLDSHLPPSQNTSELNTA
# Protocol: as §2, §3, §4, §5, §6, §7, §8
# [1] = target: T4, human Cereblon WT GST-tagged protein (Homo sapiens, UniProt Q96SW2); assay: CRBN-binding affinity, HTRF (CEREBLON BINDING kit); conditions: for inhibition at 0.5 µM: read-out: Inhibition Rate at 0.5 µM (%); for inhibition at 2 µM: read-out: Inhibition Rate at 2 µM (%)
# T4 construct: purchased CISBIO 64BDCRBNPEH
# T4 sequence (Q96SW2 whole entry): as the sequence (Q96SW2 whole entry, stated change not applied) above
# Method in brief: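 Competitive HTRF binding: compounds diluted in diluent #9 incubated with GST-tagged wild-type human Cereblon, thalidomide-Red tracer and anti-GST Eu antibody. Final compound concentrations 2 µM and 0.5 µM.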
# A375 = assay: Tumor cell proliferation inhibition (CellTiter-Meiluncell Luminescent Cell Viability Assay); assay type: cell-based; conditions: Homo sapiens, 96 hours, Table I-2, ALK inhibitors
# Method in brief: (§9)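 Cells were grown at 37°C under 5% CO2, seeded into 96-well plates, and dosed with compound on the next day. After a set treatment period, viability was read by luminescence with the CellTiter-Meiluncell reagent and IC50 values were derived. Final compound concentrations included 500 nM and 10 nM.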
# CFPAC-1 = assay: as above; assay type: cell-based; conditions: Homo sapiens, 96 hours, Table I-2, ALK inhibitors
# Method in brief: as §9
# [2] = 10 nM, read-out: Inhibition Rate at 10 nM (%)
# [3] = 500 nM, read-out: Inhibition Rate at 500 nM (%)
structure (smiles),measurement,setting,value
"Cc1ccc(C(=O)Nc2ccc(CN3CCN(Cc4ccc5c(c4)CN(C4CCC(=O)NC4=O)C5=S)CC3)c(C(F)(F)F)c2)cc1C#Cc1cnc2cccnn12 (centres unmarked) [GT-08767, N-(4-((4-((2-(2,6-dioxopiperidin-3-yl)-1-thioxoisoindolin-5-yl)methyl)piperazin-1-yl)methyl)-3-(trifluoromethyl)phenyl)-3-(imidazo[1,2-b]pyridazin-3-ylethynyl)-4-methylbenzamide]",inhibition at 0.01 µM,MM.1S; [2],70 to 80%
same,inhibition at 0.5 µM,MM.1S; [3],80 to 100%
same,inhibition at 0.01 µM,"MV-4-11; Table I-10, BCR-ABL inhibitors",80 to 100%
same,inhibition at 0.5 µM,"MV-4-11; Table I-10, BCR-ABL inhibitors",80 to 100%
same,inhibition at 0.01 µM,RPMI-8226; [2],20 to 30%
same,inhibition at 0.5 µM,RPMI-8226; [3],80 to 100%
same,inhibition at 0.01 µM,"SW620; SW-620, 10 nM, read-out: Inhibition Rate at 10 nM (%)",40 to 50%
same,inhibition at 0.5 µM,"SW620; SW-620, 500 nM, read-out: Inhibition Rate at 500 nM (%)",80 to 100%
same,Degradation of substrate protein BCR-ABL,BCR-ABL,A (0% ≤ substrate protein remaining % ≤ 80%)
"CN(C)C(=O)c1cc2cnc(Nc3ccc(N4CCN(Cc5cccc6c5CN(C5CCC(=O)NC5=O)C6=S)CC4)cn3)nc2n1C1CCCC1 (centres unmarked) [GT-08771, 7-cyclopentyl-2-((5-(4-((2-(2,6-dioxopiperidin-3-yl)-1-thioxoisoindolin-4-yl)methyl)piperazin-1-yl)pyridin-2-yl)amino)-N,N-dimethyl-7H-pyrrolo[2,3-d]pyrimidine-6-carboxamide]",Degradation of substrate protein CDK4,CDK4,A (0% ≤ substrate protein remaining % ≤ 80%)
same,Degradation of substrate protein CDK6,CDK6,A (0% ≤ substrate protein remaining % ≤ 80%)
same,inhibition at 0.5 µM,[1],60 to 80%
same,inhibition at 2 µM,[1],80 to 100%
"CC(=O)c1c(C)c2cnc(Nc3ccc(N4CCN(Cc5cccc6c5CN(C5CCC(=O)NC5=O)C6=S)CC4)cn3)nc2n(C2CCCC2)c1=O (centres unmarked) [GT-08772, 3-(4-((4-(6-((6-acetyl-8-cyclopentyl-5-methyl-7-oxo-7,8-dihydropyrido[2,3-d]pyrimidin-2-yl)amino)pyridin-3-yl)piperazin-1-yl)methyl)-1-thioxoisoindolin-2-yl)piperidine-2,6-dione]",inhibition at 0.01 µM,"MV-4-11; Table I-9, CDK4/6 inhibitors",30 to 40%
same,inhibition at 0.5 µM,"MV-4-11; Table I-9, CDK4/6 inhibitors",40 to 50%
same,Degradation of substrate protein CDK4,CDK4,A (0% ≤ substrate protein remaining % ≤ 80%)
same,Degradation of substrate protein CDK6,CDK6,A (0% ≤ substrate protein remaining % ≤ 80%)
"COc1cc(N2CCC(N3CCN(Cc4ccc5c(c4)CN(C4CCC(=O)NC4=O)C5=S)CC3)CC2)ccc1Nc1ncc(Cl)c(Nc2ccccc2P(C)(C)=O)n1 (centres unmarked) [GT-09425, 3-(5-((4-(1-(4-((5-chloro-4-((2-(dimethylphosphoryl)phenyl)amino)pyrimidin-2-yl)amino)-3-methoxyphenyl)piperidin-4-yl)piperazin-1-yl)methyl)-1-thioxoisoindolin-2-yl)piperidine-2,6-dione]",inhibition at 0.01 µM,"A375; A-375, 10 nM, read-out: Inhibition Rate at 10 nM (%)",20 to 30%
same,inhibition at 0.5 µM,"A375; A-375, 500 nM, read-out: Inhibition Rate at 500 nM (%)",50 to 60%
same,inhibition at 0.01 µM,CFPAC-1; [2],10 to 20%
same,inhibition at 0.5 µM,CFPAC-1; [3],60 to 70%
same,inhibition at 0.5 µM,[1],60 to 80%
same,inhibition at 2 µM,[1],80 to 100%
